Patent publication US20220090083A1, “TARGETING EGLN1 IN CANCER” (THE BROAD INSTITUTE, INC., priority 2018, published 2022)

How the values were obtained:
ES2 [1] = assay: CellTiter-Glo viability assay, ES2; assay type: cell-based, human; conditions: for IC50: Homo sapiens, ES-2, ES2, read-out: IC50 cellular viability (CellTiter-Glo)
Experimental: CellTiter-Glo (CTG) viability assays were performed per the manufacturer's instructions. Briefly, 5,000-10,000 cells were seeded per well in a 96 well plate then treated with either DMSO or EGLN1 inhibitor in doses indicated. […] Data presented are the average of three technical replicates.

ES2 [2] = assay: Long term proliferation assay, ES2; assay type: cell-based, human; conditions: for proliferation: ES2 control sgRNA cells; for long term proliferation: ES2
From the text: (§8) Data presented are the average of three technical replicate wells when available, excluding wells where there were no live cells to passage. Data are representative of two independent experiments.

EGLN1-dependent cells = assay: CellTiter-Glo viability assay over 5 days; assay type: cell-based, human; conditions: treated over 5 days
Experimental: CellTiter-Glo (CTG) viability assays were performed per the manufacturer's instructions. Briefly, 5,000-10,000 cells were seeded per well in a 96 well plate then treated with either DMSO or EGLN1 inhibitor in doses indicated. Following 3-6 days treatment (retreated at day 4) CTG compound was added and viability was measured. Data presented are the average of three technical replicates.

TOV21G = assay: Long term proliferation assay, TOV21G; assay type: cell-based, human; conditions: dose-dependent
From the text: (§1) Data are representative of two independent experiments.

ES2 HIF1A knockout = assay: Proliferation assay, ES2 HIF1A knockout cells; assay type: cell-based, human
From the text: as §8

ES2 [3] = assay: Annexin V apoptosis by flow cytometry, ES2; assay type: cell-based, human; conditions: ES2, 40 μM, 48 hours
Experimental: (§2) Flow cytometry was performed at the Broad Institute Flow Cytometry core using CFSE (5(6)-Carboxyfluorescein N-hydroxysuccinimidyl ester)—Cell Labeling Kit (Abcam ab113853) to label dividing cells with CFSE and analyzed on FL-1 Excitation(max) 492 nm, Emission(max) 517 nm. […] Dual labeling Annexin V with 7-Amino-Actinomycin (7-AAD) allowed quantification of apoptosis. Data are presented as the average of two technical replicates and are representative of three independent experiments. Data were analyzed using FlowJo data analysis.

ES2 [4] = assay: CFSE proliferation by flow cytometry, ES2; assay type: cell-based, human; conditions: ES2, increasing concentration, 48 hours
Experimental: (§3) Flow cytometry was performed at the Broad Institute Flow Cytometry core using CFSE (5(6)-Carboxyfluorescein N-hydroxysuccinimidyl ester)—Cell Labeling Kit (Abcam ab113853) to label dividing cells with CFSE and analyzed on FL-1 Excitation(max) 492 nm, Emission(max) 517 nm. Apoptosis was detected using PE Annexin V Apoptosis Detection Kit 1 (BD Biosciences 559763). Dual labeling Annexin V with 7-Amino-Actinomycin (7-AAD) allowed quantification of apoptosis. Data are presented as the average of two technical replicates and are representative of three independent experiments. Data were analyzed using FlowJo data analysis.

TOV112D [5] = assay: CFSE proliferation by flow cytometry, TOV112D; assay type: cell-based, human; conditions: increasing concentration, 48 hours
Experimental: as §3

[6] = tested on: EGLN1-dependent cell lines; assay: Colony formation assay, EGLN1-dependent cell lines; assay type: cell-based, human
From the text: (§9) Media and drug were refreshed every 3-4 days for 10 days. Cells were fixed on the plate with 10% neutral buffered formalin (Thermo Fisher Scientific) and stained with 0.1% crystal violet in 10% ethanol. After plates were washed and dried, dye was extracted using 10% acetic acid. Absorbance of extracted dye samples at 595 nm was quantified using a Molecular Devices SpectraMax M5 Plate Reader. […] Data are representative of three independent experiments.

OVISE [7] = assay: Annexin V apoptosis by flow cytometry, OVISE; assay type: cell-based, human; conditions: 40 μM, 48 hours
Experimental: as §2

TOV112D [8] = assay: Colony formation assay in hypoxia, TOV112D; assay type: cell-based, human; conditions: 5% oxygen
From the text: Data are representative of three independent experiments.

TOV112D [9] = assay: Annexin V apoptosis by flow cytometry, TOV112D; assay type: cell-based, human; conditions: 40 μM, 48 hours
Experimental: as §2

JHOC5 = assay: Long term proliferation assay, JHOC5; assay type: cell-based, human; conditions: JHOC5, dose-dependent
From the text: as §1

HIF1A activity = assay: Hypoxia Response Element (HRE) luciferase reporter; assay type: cell-based, human; conditions: 48 hours post-treatment, increasing dose
Experimental: The Hypoxia Response Element (HRE) was designed based on previous publications (18, 19) and was cloned with a luciferase reporter. The construct was then stably transfected to EGLN1 dependent and independent cell lines. Following transfection cells were treated with EGLN1 inhibitor for up to 6 days and luciferase activity was measured as a readout of HIF1A activity.

[10] = tested on: not EGLN1-dependent cell lines; assay: Colony formation assay, not EGLN1-dependent cell lines; assay type: cell-based, human
From the text: as §9

TOV112D [11] = assay: CellTiter-Glo viability assay, TOV112D; assay type: cell-based, human; conditions: 48 hours, increasing dose
Experimental: CellTiter-Glo (CTG) viability assays were performed per the manufacturer's instructions. Briefly, 5,000-10,000 cells were seeded per well in a 96 well plate then treated with either DMSO or EGLN1 inhibitor in doses indicated. […] Data presented are the average of three technical replicates. Data are representative of three independent experiments.

tumors formed from ES2 = assay: Microdevice delivery into ES2 tumors, immunohistochemistry; assay type: in vivo, mice; conditions: ES2 (HIF1A WT) tumors, local microdevice delivery, 48 hours
Experimental: (§4) Female Athymic^Nu/Nu mice (8-10 weeks old) were used, were obtained from Jackson Laboratories and had access to food and water in appropriate housing conditions. All animal procedures performed at the Broad Institute were approved by the Institutional Animal Care and Use Committee (IACUC) and according to institutional regulations.
(§5) Devices were manufactured as previously described (42). Briefly, microscale devices at diameter […] and length 3 mm were manufactured and pure powder compounds were formulated in 50% PEG. Mice were subcutaneously delivered ovarian cancer cells and tumors were allowed to grow to 1 cm^2. Mice were anesthetized during implantation using 1% isoflurane. A 19-guage spinal biopsy needle (Angiotech) was inserted into the tumor and served as the location for the device to be implanted.
(§6) Immunohistochemistry was performed on 4 μm serial sections from formalin-fixed, paraffin-embedded (FFPE) tumor tissues. The samples were deparaffinized, rehydrated, and pretreated for antigen retrieval by microwave treatment. Immunostaining was done using cell proliferation marker Ki67 and cleaved caspase 3 (CCE) at the Koch Institute Microscopy Core Facility.
(§7) By inserting this microdevice directly into the tumor, the effect of FG-4592, Bay 85-3934 and VH298 in tumors was assessed in vivo. Specifically, ES2 cells were implanted with intact HIF1A (ES2) or HIF1A knockout (ES2 HIF1A KO) in immunodeficient mice and the tumors were allowed to grow to 1 cm^2 before implanting a microdevice containing the EGLN1 inhibitor FG-4592 and VHL inhibitor VH298. Following implantation, the tumors were collected after 48 hours and the tumors were sectioned and stained for proliferation with an antibody against Ki-67, a cellular marker for proliferating cells or Cleaved Caspase-3, a cellular marker for apoptosis.

OVCAR4 = assay: Annexin V apoptosis by flow cytometry, OVCAR4; assay type: cell-based, human; conditions: OVCAR4, 40 μM, 48 hours
Experimental: as §2

[12] = tested on: sensitive cell lines (EGLN1-dependent); conditions: up to 30 days, p<0.01
Experimental: Non-Cas9 expressing cells were plated on a 12 well or 6 well plate in triplicate with varying concentrations of FG-4592. Every 3-4 days cells were trypsinized, counted using Nexcelom Cellometer, and reseeded at equal densities with the same concentrations of FG-4592, IOX2, BAY85-3934 or VH298. Data presented are the average of three technical replicate wells when available, excluding wells where there were no live cells to passage.

OVISE [13] = assay: Long term proliferation assay, OVISE; assay type: cell-based, human; conditions: for long term proliferation: OVISE, dose-dependent
From the text: as §8

HIF1A = assay: Immunoblot of HIF1A levels after inhibitor treatment; assay type: cell-based, human
[14] = tested on: tumors formed from ES2 with HIF1A KO; assay: Microdevice delivery into ES2 HIF1A KO tumors, immunohistochemistry; assay type: in vivo, mice; conditions: local microdevice delivery, 48 hours
Experimental: as §4, §5, §6, §7

OVISE HIF1A knockout = assay: Proliferation assay, OVISE HIF1A knockout cells; assay type: cell-based, human; conditions: 10 uM and 20 uM
From the text: as §1
However, such depletion of HIF1A rescued EGLN1-sensitivity to FG-4592 in ES2 (FIG. 5C) and OVISE (FIG. 5D) (p<0.05) cell lines.

[15] = tested on: EGLN1-dependent cell lines OVTOKO, OVISE and ES2; conditions: hypoxia (5% oxygen) and normoxia
Experimental: Cells were plated at a low density (250-1000 cells/well) with varying concentrations of FG-4592 (Selleck) on 24 well plates. Media and drug were refreshed every 3-4 days for 10 days. Cells were fixed on the plate with 10% neutral buffered formalin (Thermo Fisher Scientific) and stained with 0.1% crystal violet in 10% ethanol. After plates were washed and dried, dye was extracted using 10% acetic acid. Absorbance of extracted dye samples at 595 nm was quantified using a Molecular Devices SpectraMax M5 Plate Reader. […] Data are representative of three independent experiments.
To test this hypothesis, colony-forming formation assays were performed in the context of normal culture conditions (normoxia) or in a hypoxic incubator at 5% oxygen (hypoxia).

OVTOKO = assay: Long term proliferation assay, OVTOKO; assay type: cell-based, human; conditions: dose-dependent
From the text: as §1

TOV112D [16] = assay: Long term proliferation assay, TOV112D; assay type: cell-based, human
From the text: as §1

| SMILES | viability (CTG) (EGLN1-dependent cells) | colony formation [6] | colony formation [10] | tumor cell apoptosis (Cleaved Caspase-3 immunostaining) (tumors formed from ES2) | tumor cell proliferation (Ki-67 immunostaining) (tumors formed from ES2) | IC50 (ES2 [1]) [µM] | HIF1A levels (immunoblot) (HIF1A; ES2 cells) | HIF1A levels (immunoblot) (HIF1A; TOV112D cells) | tumor cell apoptosis (Cleaved Caspase-3 immunostaining) [14] | tumor cell proliferation (Ki-67 immunostaining) [14] | long term proliferation (ES2 [2]) | long term proliferation (OVISE [13]) | long term proliferation (OVTOKO) | also measured |
| --- | --- | --- | --- | --- | --- | --- | --- | --- | --- | --- | --- | --- | --- | --- |
| O=C(O)CNC(=O)c1nc(Cl)c2ccccc2c1O [FG-2216] | – | – | – | – | – | – | – | – | – | – | – | – | – | sensitivity of ES2 to EGLN1 inhibitors (viability) (ES2 [1]; ES2, FIG. 11D): showed sensitivity |
| Cc1nc(C(=O)NCC(=O)O)c(O)c2ccc(Oc3ccccc3)cc12 [FG-4592] | reduced viability in a dose-dependent manner | reduced colony formation | no effect | increased apoptosis | dramatic reduction in proliferating cells | 40 to 50 | increased HIF1A levels in a dose-dependent manner | increased HIF1A levels in a dose-dependent manner | no change | no change | – | – | – | proliferation (ES2 [2]; 10 uM and 20 uM): reduced proliferation of control cells; long term proliferation (TOV21G): reduced the long term proliferation; proliferation (ES2 HIF1A knockout; 10 uM and 20 uM): resistant to EGLN1 inhibition; apoptosis (Annexin V stain) (ES2 [3]): increased apoptosis; cell proliferation (CFSE stain, flow cytometry) (ES2 [4]): reduced cell proliferation; cell proliferation (CFSE stain, flow cytometry) (TOV112D [5]): did not reduce cell proliferation; apoptosis (Annexin V stain) (OVISE [7]): increased apoptosis; colony formation, sensitivity to inhibitor (TOV112D [8]): Increased sensitivity to EGLN1 inhibition was not observed; apoptosis (Annexin V stain) (TOV112D [9]): not increasing apoptosis; long term proliferation (JHOC5): reduced long term proliferation; HIF1A activity (HRE luciferase reporter) (HIF1A activity): increased in both EGLN1-dependent cell lines and cell lines not dependent on EGLN1; cell viability (CellTiter-Glo) (TOV112D [11]): no effect; apoptosis (Annexin V stain) (OVCAR4): not increasing apoptosis; long term proliferation [12]: significantly reduced long term proliferation; proliferation (OVISE [13]; OVISE control sgRNA cells, 10 uM and 20 uM): reduced proliferation of control cells; cell viability (CellTiter-Glo) (ES2 [1]; ES2, 48 hours, increasing dose): reduced viability; proliferation (OVISE HIF1A knockout): resistant to EGLN1 inhibition; colony formation, sensitivity to inhibitor [15]: sensitive |
| O=C(O)CNC(=O)c1c(O)c2ccccc2n(Cc2ccccc2)c1=O [IOX2] | reduced viability in a dose-dependent manner | reduced colony formation | no effect | – | – | – | – | – | – | – | reduced long term proliferation | reduced long term proliferation | reduced long term proliferation | – |
| O=c1c(-n2ccnn2)c[nH]n1-c1cc(N2CCOCC2)ncn1 [Molidustat] | – | – | – | – | – | 40 to 50 | increased HIF1A levels in a dose-dependent manner | increased HIF1A levels in a dose-dependent manner | – | – | – | – | – | – |
| Cc1ncsc1-c1ccc(CNC(=O)[C@@H]2C[C@@H](O)CN2C(=O)[C@@H](NC(=O)C2(C#N)CC2)C(C)(C)C)cc1 [VH298] | – | – | – | increased apoptosis | reduction of proliferating cells | – | increased HIF1A levels in a dose-dependent manner | – | dependent on intact HIF1A | dependent on intact HIF1A | substantially decreased cell proliferation | reduced long term proliferation | reduced long term proliferation | proliferation (ES2 [2]; 100 uM): significantly reduced proliferation of control cells; proliferation (ES2 HIF1A knockout; 100 uM): resistant to VHL1 inhibition; proliferation (TOV112D [16]): slightly decreased proliferation |
| COc1cccc2c1C(=O)c1c(O)c3c(c(O)c1C2=O)C[C@@](O)(C(=O)CO)C[C@@H]3O[C@H]1C[C@H](N)[C@H](O)[C@H](C)O1 [doxorubicin] | – | – | – | increased apoptosis | reduced proliferation | – | – | – | increased apoptosis | reduced proliferation | – | – | – | – |
